Measured values taken from ChEMBL document CHEMBL1909046, “DrugMatrix in vitro pharmacology data”.

Target: Carbonic anhydrase 2 (Homo sapiens, UniProt P00918)
Test: DRUGMATRIX: Carbonic Anhydrase II enzyme inhibition (substrate: 4-Nitrophenyl acetate (4-NPA))
Format: tissue-based, Erythrocyte
Details: erythrocyte; Not Active = under 50% inhibition at 10 µM

Row | SMILES | IC50
1 | CCCCC(=O)N(Cc1ccc(-c2ccccc2-c2nnn[nH]2)cc1)[C@H](C(=O)O)C(C)C | Not Active
2 | O=C(O)COc1ccc(C(=O)c2cccs2)c(Cl)c1Cl | Not Active
3 | CN1[C@@H]2CC[C@H]1C[C@@H](OC(c1ccccc1)c1ccccc1)C2 [BENZTROPINE] | Not Active
4 | C[C@@](Cc1ccc(O)c(O)c1)(NN)C(=O)O.O [CARBIDOPA] | Not Active
5 | CN1CCN(C2=Nc3cc(Cl)ccc3Nc3ccccc32)CC1 [CLOZAPINE] | Not Active
6 | CC(C)NC[C@@H](O)COc1cccc2ccccc12 [DEXPROPRANOLOL] | Not Active
7 | CC(C)NC[C@H](O)COc1cccc2ccccc12 [LEVOPROPRANOLOL] | Not Active
8 | O=C(O)CCCCC1CCSS1 (stereo not drawn) [LIPOIC ACID, ALPHA] | Not Active

Target: T1, Alpha-1A adrenergic receptor (Rattus norvegicus, UniProt P43140)
T1 sequence (P43140 whole entry): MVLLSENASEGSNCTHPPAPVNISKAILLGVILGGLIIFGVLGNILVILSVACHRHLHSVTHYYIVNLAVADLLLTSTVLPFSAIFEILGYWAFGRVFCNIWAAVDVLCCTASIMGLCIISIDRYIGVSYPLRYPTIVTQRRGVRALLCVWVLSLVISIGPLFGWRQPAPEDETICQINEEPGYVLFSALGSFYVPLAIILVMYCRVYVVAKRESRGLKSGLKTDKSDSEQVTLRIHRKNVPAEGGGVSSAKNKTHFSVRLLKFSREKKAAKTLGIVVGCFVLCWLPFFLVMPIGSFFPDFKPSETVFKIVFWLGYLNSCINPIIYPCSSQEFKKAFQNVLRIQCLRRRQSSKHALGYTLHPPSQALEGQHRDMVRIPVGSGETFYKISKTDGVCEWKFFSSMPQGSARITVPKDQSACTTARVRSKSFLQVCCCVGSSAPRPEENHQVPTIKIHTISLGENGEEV
Test: DRUGMATRIX: Alpha-1A adrenergic receptor radioligand binding (ligand: prazosin)
Format: cell membranes, Wistar, Submaxillary gland, Membrane
Details: Not Active = under 50% inhibition at 10 µM

Row | SMILES | IC50
9 | CCCCC(=O)N(Cc1ccc(-c2ccccc2-c2nnn[nH]2)cc1)[C@H](C(=O)O)C(C)C | Not Active
10 | O=C(O)COc1ccc(C(=O)c2cccs2)c(Cl)c1Cl | Not Active
11 | C[C@@](Cc1ccc(O)c(O)c1)(NN)C(=O)O.O [CARBIDOPA] | Not Active
12 | CC(C)NC[C@@H](O)COc1cccc2ccccc12 [DEXPROPRANOLOL] | Not Active
13 | CC(C)NC[C@H](O)COc1cccc2ccccc12 [LEVOPROPRANOLOL] | Not Active
14 | O=C(O)CCCCC1CCSS1 (stereo not drawn) [LIPOIC ACID, ALPHA] | Not Active

Same assay, conditions: Not Active = under 50% inhibition at 10 µM; read-out: IC50

Row | SMILES | IC50 [nM]
15 | CN1[C@@H]2CC[C@H]1C[C@@H](OC(c1ccccc1)c1ccccc1)C2 [BENZTROPINE] | 142

Same assay, conditions: Not Active = under 50% inhibition at 10 µM; read-out: Ki

Row | SMILES | Ki [nM]
16 | CN1[C@@H]2CC[C@H]1C[C@@H](OC(c1ccccc1)c1ccccc1)C2 [BENZTROPINE] | 57

Target: Histamine H2 receptor (Homo sapiens, UniProt P25021); further: in other assays of this panel Not Active means under 50% inhibition at 10 µM
Sequence (P25021 whole entry): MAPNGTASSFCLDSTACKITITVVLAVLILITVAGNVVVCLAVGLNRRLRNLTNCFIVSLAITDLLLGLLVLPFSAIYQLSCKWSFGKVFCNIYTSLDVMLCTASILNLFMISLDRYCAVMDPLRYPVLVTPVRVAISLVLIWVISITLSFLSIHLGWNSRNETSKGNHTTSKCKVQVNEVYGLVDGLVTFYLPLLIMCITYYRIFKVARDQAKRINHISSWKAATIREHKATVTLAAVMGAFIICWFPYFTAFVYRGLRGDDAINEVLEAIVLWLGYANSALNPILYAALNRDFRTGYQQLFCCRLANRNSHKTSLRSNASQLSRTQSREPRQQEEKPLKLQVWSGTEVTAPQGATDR
Format: cell membranes, CHO-K1, Membrane
Details: cho-k1

Row | SMILES | IC50
17 | CCCCC(=O)N(Cc1ccc(-c2ccccc2-c2nnn[nH]2)cc1)[C@H](C(=O)O)C(C)C | Not Active
18 | O=C(O)COc1ccc(C(=O)c2cccs2)c(Cl)c1Cl | Not Active
19 | C[C@@](Cc1ccc(O)c(O)c1)(NN)C(=O)O.O [CARBIDOPA] | Not Active
20 | CC(C)NC[C@@H](O)COc1cccc2ccccc12 [DEXPROPRANOLOL] | Not Active
21 | CC(C)NC[C@H](O)COc1cccc2ccccc12 [LEVOPROPRANOLOL] | Not Active
22 | O=C(O)CCCCC1CCSS1 (stereo not drawn) [LIPOIC ACID, ALPHA] | Not Active

Same assay, conditions: read-out: IC50

Row | SMILES | IC50 [nM]
23 | CN1[C@@H]2CC[C@H]1C[C@@H](OC(c1ccccc1)c1ccccc1)C2 [BENZTROPINE] | 1210

Same assay, conditions: read-out: Ki

Row | SMILES | Ki [nM]
25 | CN1[C@@H]2CC[C@H]1C[C@@H](OC(c1ccccc1)c1ccccc1)C2 [BENZTROPINE] | 1190

Target: T2, Calcitonin receptor (Homo sapiens, UniProt P30988); further: in other assays of this panel Not Active means under 50% inhibition at 10 µM
T2 sequence (P30988 whole entry): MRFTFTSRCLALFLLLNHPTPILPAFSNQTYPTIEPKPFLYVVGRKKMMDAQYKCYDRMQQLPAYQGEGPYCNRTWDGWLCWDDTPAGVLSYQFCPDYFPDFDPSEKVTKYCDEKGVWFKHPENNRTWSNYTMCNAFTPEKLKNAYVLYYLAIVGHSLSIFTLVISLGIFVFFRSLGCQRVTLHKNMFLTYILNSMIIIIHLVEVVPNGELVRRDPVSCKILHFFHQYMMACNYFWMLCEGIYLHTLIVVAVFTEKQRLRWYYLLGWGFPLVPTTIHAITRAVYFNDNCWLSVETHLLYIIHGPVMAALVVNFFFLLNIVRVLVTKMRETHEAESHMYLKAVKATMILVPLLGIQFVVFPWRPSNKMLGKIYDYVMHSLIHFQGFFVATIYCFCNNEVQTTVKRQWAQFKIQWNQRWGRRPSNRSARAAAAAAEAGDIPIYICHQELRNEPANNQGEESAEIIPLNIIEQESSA
Format: cell membranes, Membrane
Details: t47d

Row | SMILES | IC50
27 | CCCCC(=O)N(Cc1ccc(-c2ccccc2-c2nnn[nH]2)cc1)[C@H](C(=O)O)C(C)C | Not Active
28 | O=C(O)COc1ccc(C(=O)c2cccs2)c(Cl)c1Cl | Not Active
29 | CN1[C@@H]2CC[C@H]1C[C@@H](OC(c1ccccc1)c1ccccc1)C2 [BENZTROPINE] | Not Active
30 | C[C@@](Cc1ccc(O)c(O)c1)(NN)C(=O)O.O [CARBIDOPA] | Not Active
31 | CN1CCN(C2=Nc3cc(Cl)ccc3Nc3ccccc32)CC1 [CLOZAPINE] | Not Active
32 | CC(C)NC[C@@H](O)COc1cccc2ccccc12 [DEXPROPRANOLOL] | Not Active
33 | CC(C)NC[C@H](O)COc1cccc2ccccc12 [LEVOPROPRANOLOL] | Not Active
34 | O=C(O)CCCCC1CCSS1 (stereo not drawn) [LIPOIC ACID, ALPHA] | Not Active

Target: T3, Vasoactive intestinal polypeptide receptor 1 (Homo sapiens, UniProt P32241); further: in other assays of this panel Not Active means under 50% inhibition at 10 µM
T3 sequence (P32241 whole entry): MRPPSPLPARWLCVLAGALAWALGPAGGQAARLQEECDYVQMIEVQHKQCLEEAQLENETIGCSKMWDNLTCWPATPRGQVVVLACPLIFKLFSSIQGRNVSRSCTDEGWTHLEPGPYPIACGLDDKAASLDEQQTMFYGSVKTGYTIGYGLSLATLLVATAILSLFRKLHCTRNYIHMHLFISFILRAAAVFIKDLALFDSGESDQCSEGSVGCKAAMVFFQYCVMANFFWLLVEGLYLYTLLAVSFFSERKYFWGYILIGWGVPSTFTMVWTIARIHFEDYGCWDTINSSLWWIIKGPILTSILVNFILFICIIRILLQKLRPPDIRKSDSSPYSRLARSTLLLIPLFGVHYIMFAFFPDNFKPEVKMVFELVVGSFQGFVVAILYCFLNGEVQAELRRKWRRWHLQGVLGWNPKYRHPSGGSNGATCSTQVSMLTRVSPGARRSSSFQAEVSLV
Format: cell membranes, Membrane
Details: ht-29

Row | SMILES | IC50
35 | CCCCC(=O)N(Cc1ccc(-c2ccccc2-c2nnn[nH]2)cc1)[C@H](C(=O)O)C(C)C | Not Active
36 | O=C(O)COc1ccc(C(=O)c2cccs2)c(Cl)c1Cl | Not Active
37 | CN1[C@@H]2CC[C@H]1C[C@@H](OC(c1ccccc1)c1ccccc1)C2 [BENZTROPINE] | Not Active
38 | C[C@@](Cc1ccc(O)c(O)c1)(NN)C(=O)O.O [CARBIDOPA] | Not Active
39 | CN1CCN(C2=Nc3cc(Cl)ccc3Nc3ccccc32)CC1 [CLOZAPINE] | Not Active
40 | CC(C)NC[C@@H](O)COc1cccc2ccccc12 [DEXPROPRANOLOL] | Not Active
41 | CC(C)NC[C@H](O)COc1cccc2ccccc12 [LEVOPROPRANOLOL] | Not Active
42 | O=C(O)CCCCC1CCSS1 (stereo not drawn) [LIPOIC ACID, ALPHA] | Not Active

Target: T4, Angiotensin-converting enzyme (Oryctolagus cuniculus, UniProt P12822);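 further: enzymatic inhibition of angiotensin-converting enzyme measured with FAPGG as the substrate; in other assays of this panel Not Active means under 50% inhibition at 10 µM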
T4 sequence (P12822 whole entry): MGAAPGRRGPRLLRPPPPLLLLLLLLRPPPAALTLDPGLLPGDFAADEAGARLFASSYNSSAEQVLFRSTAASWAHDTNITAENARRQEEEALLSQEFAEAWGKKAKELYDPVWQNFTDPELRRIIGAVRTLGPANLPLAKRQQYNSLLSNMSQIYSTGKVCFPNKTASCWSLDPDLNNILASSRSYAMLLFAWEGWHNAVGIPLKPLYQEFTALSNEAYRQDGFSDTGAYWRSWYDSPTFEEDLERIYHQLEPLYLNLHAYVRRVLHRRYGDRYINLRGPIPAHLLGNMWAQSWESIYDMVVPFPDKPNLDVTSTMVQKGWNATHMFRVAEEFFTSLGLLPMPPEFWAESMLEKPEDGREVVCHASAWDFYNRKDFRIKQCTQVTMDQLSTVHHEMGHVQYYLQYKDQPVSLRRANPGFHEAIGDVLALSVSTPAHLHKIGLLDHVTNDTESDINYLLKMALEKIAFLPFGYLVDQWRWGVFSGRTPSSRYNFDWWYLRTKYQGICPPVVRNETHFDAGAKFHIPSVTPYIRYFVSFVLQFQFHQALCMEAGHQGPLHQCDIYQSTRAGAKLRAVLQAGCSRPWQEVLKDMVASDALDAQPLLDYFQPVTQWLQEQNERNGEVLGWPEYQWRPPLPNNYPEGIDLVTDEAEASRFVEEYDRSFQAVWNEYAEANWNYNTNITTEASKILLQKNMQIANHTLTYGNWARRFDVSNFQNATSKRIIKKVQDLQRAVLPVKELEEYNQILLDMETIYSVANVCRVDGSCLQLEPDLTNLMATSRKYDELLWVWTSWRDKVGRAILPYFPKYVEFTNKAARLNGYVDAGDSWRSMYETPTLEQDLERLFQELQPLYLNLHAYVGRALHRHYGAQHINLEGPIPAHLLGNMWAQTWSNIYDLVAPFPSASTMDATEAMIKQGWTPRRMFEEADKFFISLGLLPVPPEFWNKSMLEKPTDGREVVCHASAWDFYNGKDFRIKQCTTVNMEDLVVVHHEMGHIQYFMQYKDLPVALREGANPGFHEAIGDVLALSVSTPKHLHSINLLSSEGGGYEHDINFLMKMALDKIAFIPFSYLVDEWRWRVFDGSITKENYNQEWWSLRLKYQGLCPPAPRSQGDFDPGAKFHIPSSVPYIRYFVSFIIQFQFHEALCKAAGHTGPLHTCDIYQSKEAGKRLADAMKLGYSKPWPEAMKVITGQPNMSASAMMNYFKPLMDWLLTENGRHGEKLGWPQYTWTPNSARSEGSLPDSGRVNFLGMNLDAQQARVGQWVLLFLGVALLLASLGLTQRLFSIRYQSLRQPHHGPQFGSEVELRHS
Format: tissue-based, Lung
Details: not given

Row | SMILES | IC50
43 | CCCCC(=O)N(Cc1ccc(-c2ccccc2-c2nnn[nH]2)cc1)[C@H](C(=O)O)C(C)C | Not Active
44 | O=C(O)COc1ccc(C(=O)c2cccs2)c(Cl)c1Cl | Not Active
45 | CN1[C@@H]2CC[C@H]1C[C@@H](OC(c1ccccc1)c1ccccc1)C2 [BENZTROPINE] | Not Active
46 | C[C@@](Cc1ccc(O)c(O)c1)(NN)C(=O)O.O [CARBIDOPA] | Not Active
47 | CN1CCN(C2=Nc3cc(Cl)ccc3Nc3ccccc32)CC1 [CLOZAPINE] | Not Active
48 | CC(C)NC[C@@H](O)COc1cccc2ccccc12 [DEXPROPRANOLOL] | Not Active
49 | CC(C)NC[C@H](O)COc1cccc2ccccc12 [LEVOPROPRANOLOL] | Not Active
50 | O=C(O)CCCCC1CCSS1 (stereo not drawn) [LIPOIC ACID, ALPHA] | Not Active
